In US20250250264A1, “KIF18A INHIBITOR AND USE THEREOF” (Wuhan Humanwell Innovative Drug Research and Development …, priority 2022, published 2025) one finds IC50 data, which are given here for 16 compounds.

Each structure is given as a SMILES string.

Test [1] has as its target recombinant protein KIF18A (kinesin domain: aa 1-467) (Homo sapiens (Human), UniProt Q8NI77). Put plainly: Assay on inhibition of KIF18A enzymatic activity (ADP-Glo). Type of test: biochemical. Particulars: KIF18A 80 nM, ATP 80 μM, 3 h at room temperature, ADP-Glo luminescence; read-out: IC50 (μM), inhibitory effects of compounds on KIF18A enzymatic activity. An excerpt: The recombinant protein KIF18A (kinesin domain: aa 1-467) used in this assay was expressed by the Bac-to-Bac baculovirus expression system from Invitrogen, and the resulting protein was purified for use in this assay (Seki, M. et al. 2003 Nucleic Acids Res.). Quantitative detection of KIF18A enzymatic activity was completed using an ADP-Glo™ kinase assay kit (Promega Inc). Related procedures strictly followed the product instructions, which are briefly described as follows:
The reaction system consisted of a test compound, the recombinant protein KIF18A (aa 1-467), ATP (Promega Inc), and an assay buffer. The test compound was prepared into a 0.5 mM stock solution using DMSO (Sigma Inc) and then serially diluted in DMSO. The assay buffer consisted of an aqueous solution of 15 mM Tris, 10 mM MgCl2 (Sigma Inc), 0.01% Pluronic F-68 (Life Technologies Inc), 1 μM paclitaxel (Cytoskeleton Inc), 30 μg/mL porcine tubulin (Cytoskeleton Inc), and 2% DMSO. The KIF18A protein (final concentration: 80 nM) and the compound at different concentrations (1 μL) were added to the prepared assay buffer (50 μL), and the mixture was incubated at room temperature for 15 min. Then, ATP (final concentration: 80 μM) was added to the reaction mixture, and the resulting mixture was incubated at room temperature for 3 h. After the reaction was completed, 5 μL of the ADP-Glo™ reagent and 2.5 μL of the reaction mixture were added to a 384-well plate (Grenier Inc). The resulting mixture was mixed homogeneously, then sealed by an aluminum foil sealing film, and incubated at room temperature in the dark for 40 min. Finally, 10 μL of the […] was added to each reaction well, and the mixture was incubated at room temperature in the dark for 40 min. After all reactions were completed, the luminescence values of the wells were read on a microplate reader (Molecular Device_SpectraMax Id5), and the inhibition ratios were calculated. The calculation formula for the inhibition rates was as follows: inhibition rate=(1−(compound group−blank group)/(negative control group−blank group))×100%. Then, based on the inhibition rates at different compound concentrations, the IC50 value of the test compound was calculated using the GraphPad Prism 8 software.
On the technique in general: ADP-Glo first removes unused ATP, then detects ADP through luciferase.

Test [2] has as its system NIH:OVCAR-3 cells. Put plainly: Assay on inhibition of OVCAR3 tumor cell proliferation (CellTiter-Glo). Type of test: cell-based. Particulars: Homo sapiens, OVCAR-3, 72 h, 3 days of drug treatment, read-out: IC50 (μM), inhibitory effects of compounds on tumor cell proliferation. As to the method: NIH:OVCAR-3 cells (ATCC, Cat No. HTB-161, purchased from Co-Bier) were seeded into a T75 culture flask and cultured in an RPMI 1640 medium containing 20% FBS for 3 days in preparation for subsequent culturing and seeding into a 96-well plate for the cell proliferation assay.
The OVCAR3 cells were seeded at a density of 3000 cells/100 μL/well into the 96-well cell plate, and then the plate was incubated in an incubator (37° C., 5% CO2) for 18 h. On the second day, drug treatment was started. Serially diluted test compound solutions (each drug starting at a concentration of 10 μM, diluted in DMSO, with a dilution ratio of 1:3, and nine gradient points for each drug) or DMSO (negative control) was added to the medium in the plate at 100 μL/well, and a blank group was set up with only medium, but no seeded cell strains. After the drug addition, the plate was incubated in the incubator for another 3 days (37° C., 5% CO2). On the fourth day, plate detection was performed. To each well, 100 μL of CellTiter-Glo reagent (Promega G9243) was added. The plate was shaken for 5 min and then left to stand at room temperature for 5 min. The chemical luminescence signal value of each well was determined using a microplate reader (PerkinElmer EnVision®2104). Cell proliferation inhibition rate=(1−(compound group−blank group)/(DMSO group−blank group))×100%. Then, the IC50 value of each compound was calculated using the GraphPad Prism 8 software.

recombinant protein KIF18A (kinesin domain: aa 1-467), sequence (Q8NI77 1-467): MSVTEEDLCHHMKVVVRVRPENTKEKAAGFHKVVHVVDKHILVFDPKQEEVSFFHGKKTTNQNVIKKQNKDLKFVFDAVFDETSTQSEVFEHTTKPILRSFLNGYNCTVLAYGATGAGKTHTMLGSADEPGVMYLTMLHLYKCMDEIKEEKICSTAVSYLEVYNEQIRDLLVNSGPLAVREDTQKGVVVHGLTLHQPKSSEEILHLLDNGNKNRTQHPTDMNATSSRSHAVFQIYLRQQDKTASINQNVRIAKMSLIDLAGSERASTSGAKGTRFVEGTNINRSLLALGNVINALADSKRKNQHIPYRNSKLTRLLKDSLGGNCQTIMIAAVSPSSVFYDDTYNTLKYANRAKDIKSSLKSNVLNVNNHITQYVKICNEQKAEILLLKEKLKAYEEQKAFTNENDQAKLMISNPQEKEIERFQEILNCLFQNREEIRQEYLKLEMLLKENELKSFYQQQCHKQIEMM
recombinant protein KIF18A (kinesin domain: aa 1-467), sequence (P02550 whole entry partner, the tested form may be a part): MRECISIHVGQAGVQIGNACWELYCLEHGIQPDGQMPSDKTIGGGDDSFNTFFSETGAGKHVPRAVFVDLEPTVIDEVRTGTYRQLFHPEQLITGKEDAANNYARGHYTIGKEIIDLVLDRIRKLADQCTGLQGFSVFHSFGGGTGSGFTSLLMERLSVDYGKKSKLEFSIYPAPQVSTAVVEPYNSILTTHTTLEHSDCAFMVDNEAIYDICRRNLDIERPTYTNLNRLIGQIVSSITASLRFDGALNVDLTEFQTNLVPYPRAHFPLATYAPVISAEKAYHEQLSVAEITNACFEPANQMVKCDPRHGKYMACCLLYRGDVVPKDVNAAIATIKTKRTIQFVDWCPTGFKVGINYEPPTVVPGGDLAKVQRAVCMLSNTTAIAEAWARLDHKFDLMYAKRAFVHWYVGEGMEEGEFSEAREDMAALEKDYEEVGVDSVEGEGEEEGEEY
recombinant protein KIF18A (kinesin domain: aa 1-467), sequence (P02554 whole entry partner, the tested form may be a part): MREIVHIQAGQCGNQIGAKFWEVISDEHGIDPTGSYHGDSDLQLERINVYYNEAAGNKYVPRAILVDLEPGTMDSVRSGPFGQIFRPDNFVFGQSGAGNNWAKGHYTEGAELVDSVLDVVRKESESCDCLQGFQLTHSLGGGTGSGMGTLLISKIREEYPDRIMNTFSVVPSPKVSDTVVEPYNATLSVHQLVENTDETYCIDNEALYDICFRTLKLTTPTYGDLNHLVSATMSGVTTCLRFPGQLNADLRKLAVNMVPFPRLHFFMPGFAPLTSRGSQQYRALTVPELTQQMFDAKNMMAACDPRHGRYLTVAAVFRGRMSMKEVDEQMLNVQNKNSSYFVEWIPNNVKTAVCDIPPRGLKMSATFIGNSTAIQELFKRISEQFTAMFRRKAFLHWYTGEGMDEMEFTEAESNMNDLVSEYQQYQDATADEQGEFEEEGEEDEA

For `Cc1cc(-c2cn(-c3ccc(NS(=O)(=O)CCO)cc3N3CCC4(CC3)CC4)nn2)nc(N2CCC(F)(F)CC2)n1` [Example I-79, N-(4-(4-(2-(4,4-Difluoropiperidin-1-yl)-6-methylpyrimidin-4-yl)-1H-1,2,3-triazol-1-yl)-3-(6-azaspiro[2.5]octan-6-yl)phenyl)-2-hydroxyethane-1-sulfonamide], the IC50 in test [1] was determined as 0.004 µM; in test [2], 0.038 µM.
As for `Cc1cc(-c2nnc(-c3ccc(NS(=O)(=O)CCO)cc3N3CCC4(CC3)CC4)s2)nc(N2CCCC(F)(F)C2)n1` [Example I-85, N-(4-(5-(2-(3,3-Difluoropiperidin-1-yl)-6-methylpyrimidin-4-yl)-1,3,4-thiadiazol-2-yl)-3-(6-azaspiro[2.5]octan-6-yl)phenyl)-2-hydroxyethane-1-sulfonamide], the IC50 in test [1] was found to be 0.022 µM; in test [2], 0.284 µM.
For the compound `Cc1cc(-c2nnc(-c3ccc(NS(=O)(=O)CCO)cc3N3CCC4(CC3)CC4)o2)nc(N2CC3CC3C2)n1` (centres unmarked) [Example I-86, N-(4-(5-(2-(3-azabicyclo[3.1.0]hexan-3-yl)-6-methylpyrimidin-4-yl)-1,3,4-oxadiazol-2-yl)-3-(6-azaspiro[2.5]octan-6-yl)phenyl)-2-hydroxyethane-1-sulfonamide], the values for the IC50 in test [1] and in test [2] were 0.003 µM and 0.07 µM, respectively.
Consider `Cc1cc(-c2nnc(-c3ccc(NS(=O)(=O)CCO)cc3N3CCC4(CC3)CC4)o2)nc(N2CCC(F)(F)CC2)c1` [Example I-87, N-(4-(5-(6-(4,4-Difluoropiperidin-1-yl)-4-methylpyridin-2-yl)-1,3,4-oxadiazol-2-yl)-3-(6-azaspiro [2.5]octan-6-yl)phenyl)-2-hydroxyethanesulfonamide], for which the values for the IC50 in test [1] and in test [2] were 0.004 µM and 0.144 µM, respectively.
For `Cc1cc(-c2nnc(-c3ccc(NS(=O)(=O)CCO)cc3N3CCC4(CC3)CC4)o2)nc(N2CC3C(C2)C3(F)F)n1` (centres unmarked) [Example I-88, N-(4-(5-(2-(6,6-Difluoro-3-azabicyclo[3.1.0]hexan-3-yl)-6-methylpyrimidin-4-yl)-1,3,4-oxadiazol-2-yl)-3-(6-azaspiro[2.5]octan-6-yl)phenyl)-2-hydroxyethane-1-sulfonamide] the same measures were 0.001 µM and 0.015 µM.
On the same counts, the results for `CCc1cc(-c2cnn(-c3ccc(NS(=O)(=O)CCO)cc3N3CCC4(CC3)CC4)c2)nc(N2CCC(F)(F)CC2)n1` [Example I-95, N-(4-(4-(2-(4,4-Difluoropiperidin-1-yl)-6-ethylpyrimidin-4-yl)-1H-pyrazol-1-yl)-3-(6-azaspiro[2.5]octan-6-yl)phenyl)-2-hydroxyethane-1-sulfonamide] are 0.002 µM and 0.412 µM.
Take `Cc1cc(-c2nnc(-c3ccc(NS(=O)(=O)CCO)cc3N3CCC4(CC3)CC4)o2)nc(N2CC(F)(F)CC(F)(F)C2)n1` [Example I-100, N-(4-(5-(6-Methyl-2-(3,3,5,5-tetrafluoropiperidin-1-yl)pyrimidin-4-yl)-1,3,4-oxadiazol-2-yl)-3-(6-azaspiro[2.5]octan-6-yl)phenyl)-2-hydroxyethane-1-sulfonamide]: the values for the IC50 in test [1] and in test [2] were 0.01 µM and 0.115 µM, respectively.
`Cc1cc(-c2nnc(-c3ccc(NS(=O)(=O)CCO)cc3N3CCC4(CC3)CC4)o2)nc(N2C[C@@H](F)[C@@H](F)C2)n1` [Example I-101, N-(4-(5-(2-((3S,4R)-3,4-Difluoropyrrolidin-1-yl)-6-methylpyrimidin-4-yl)-1,3,4-oxadiazol-2-yl)-3-(6-azaspiro[2.5]octan-6-yl)phenyl)-2-hydroxyethane-1-sulfonamide]: the IC50 in test [1] is 0.008 µM; in test [2], 0.26 µM.
`Cc1cc(-c2nnc(-c3ccc(NS(=O)(=O)CCO)cc3N3CCC4(CC3)CC4)o2)nc(N2CCCC(F)C2)n1` (centres unmarked) [Example I-102, N-(4-(5-(2-(3-Fluoropiperidin-1-yl)-6-methylpyrimidin-4-yl)-1,3,4-oxadiazol-2-yl)-3-(6-azaspiro[2.5]octan-6-yl)phenyl)-2-hydroxyethane-1-sulfonamide]: the values for the IC50 in test [1] and in test [2] were 0.004 µM and 0.144 µM, respectively.
On to `Cc1cc(-c2nnc(-c3ccc(NS(=O)(=O)CCO)cc3N3CCC4(CC3)CC4)o2)cc(N2CCC(F)CC2)n1` [Example I-105, N-(4-(5-(2-(4-Fluoropiperidin-1-yl)-6-methylpyridin-4-yl)-1,3,4-oxadiazol-2-yl)-3-(6-azaspiro [2.5]octan-6-yl)phenyl)-2-hydroxyethane-sulfonamide], for which the IC50 was 0.002 µM in test [1] and 0.033 µM in test [2].
On the same counts, the results for `Cc1cc(-c2cnn(-c3ccc(NS(=O)(=O)CCO)cc3N3CCC(F)(F)CC3)c2)nc(N2CCC(F)(F)CC2)n1` [Example I-106, N-(3-(4,4-Difluoropiperidin-1-yl)-4-(4-(2-(4,4-difluoropiperidin-1-yl)-6-methylpyrimidin-4-yl)-1H-pyrazol-1-yl)phenyl)-2-hydroxyethane-1-sulfonamide] are 0.011 µM and 0.208 µM.
In the case of `O=S(=O)(CCO)Nc1ccc(-n2cc(-c3cc(C(F)F)nc(N4CCC(F)(F)CC4)c3)cn2)c(N2CCC3(CC2)CC3)c1` [Example I-107, N-(4-(4-(2-(Difluoromethyl)-6-(4,4-difluoropiperidin-1-yl)pyridin-4-yl)-1H-pyrazol-1-yl)-3-(6-azaspiro[2.5]octan-6-yl)phenyl)-2-hydroxyethane-1-sulfonamide], the IC50 in test [1] was determined as 0.008 µM; in test [2], 0.213 µM.
In the case of `O=S(=O)(CCO)Nc1ccc(-n2cc(-c3ccnc(N4CCC(F)(F)CC4)n3)cn2)c(N2CCC3(CC2)CC3)c1` [Example I-109, N-(4-(4-(2-(4,4-Difluoropiperidin-1-yl)pyrimidin-4-yl)-1H-pyrazol-1-yl)-3-(6-azaspiro[2.5]octan-6-yl)phenyl)-2-hydroxyethane-1-sulfonamide], the IC50 was 0.005 µM in test [1] and 0.066 µM in test [2].
For `Cc1cc(-c2cnn(-c3ccc(NS(=O)(=O)CCO)cc3N3CCC4(CC3)CC4)c2)nc(C2CCC(F)(F)CC2)n1` [Example I-110, N-(4-(4-(2-(4,4-Difluorocyclohexyl)-6-methylpyrimidin-4-yl)-1H-pyrazol-1-yl)-3-(6-azaspiro[2.5]octan-6-yl)phenyl)-2-hydroxyethane-1-sulfonamide] the same measures were 0.002 µM and 0.061 µM.
`Cc1cc(-c2cnn(-c3ccc(NS(=O)(=O)[C@H](C)CO)cc3N3CCC4(CC3)CC4)c2)nc(N2CCC(F)(F)CC2)n1` [Example I-111, (R)—N-(4-(4-(2-(4,4-Difluoropiperidin-1-yl)-6-methylpyrimidin-4-yl)-1H-pyrazol-1-yl)-3-(6-azaspiro[2.5]octan-6-yl)phenyl)-1-hydroxypropane-2-sulfonamide]: the results for the IC50 in test [1] and in test [2] were 0.005 µM and 0.073 µM, respectively.
With `Cc1cc(-c2cnn(-c3ccc(NS(=O)(=O)[C@@H](C)CO)cc3N3CCC4(CC3)CC4)c2)nc(N2CCC(F)(F)CC2)n1` [Example I-112, (S)—N-(4-(4-(2-(4,4-Difluoropiperidin-1-yl)-6-methylpyrimidin-4-yl)-1H-pyrazol-1-yl)-3-(6-azaspiro[2.5]octan-6-yl)phenyl)-1-hydroxypropane-2-sulfonamide], the IC50 was found to be 0.002 µM in test [1] and 0.107 µM in test [2].
